Data: patent publication US8193241B2, “Discodermolide analogues and methods of their use” (The Trustees Of The University Of Pennsylvania, priority 2007, dated 2012)

What was measured:
Assay type in all cases: cell-based
[1] = test system: multi-drug resistant (MDR) cell line (NCI/ADR), over-expresses P-glycoprotein; assay: Antiproliferative activity, NCI/ADR; conditions: Homo sapiens, NCI/ADR-RES
[2] = test system: wide range of cell lines, including breast (MCF-7), ovarian (SKOV3) and MDR (NCI/ADR); assay: Antiproliferative assays over a series of cell lines (statements in words); conditions: wide range of cell lines incl. MCF-7, SKOV3, NCI/ADR
breast (MCF-7) cell line = assay: Antiproliferative activity, MCF-7; conditions: Homo sapiens, MCF7; MCF-7 breast cell line
[3] = test system: ovarian (SKOV3) cell line; assay: Antiproliferative activity, SKOV3; conditions: Homo sapiens, SK-OV-3

Compound	IC50 [1] [nM]	Antiproliferative activity in words [2]	IC50 (breast (MCF-7) cell line) [nM]	IC50 [3] [nM]
C=C/C=C\C(C)[C@H](OC(N)=O)[C@@H](C)[C@H](O)[C@@H](C)C/C(C)=C\[C@H](C)[C@@H](O)C(C)/C=C\c1ccc2ccc(=O)oc2c1 (single isomer, unassigned; (+)) [(+)-6]	190	nanomolar activity similar to (+)-discodermolide 1	12	44
CC/C=C\C(C)[C@H](OC(N)=O)[C@@H](C)[C@H](O)[C@@H](C)C/C(C)=C\[C@H](C)[C@@H](O)C(C)/C=C\c1ccc2ccc(=O)oc2c1 (single isomer, unassigned; (+)) [(+)-8]	230	nanomolar activity equivalent to (+)-1 and (+)-6	15	35
CC/C=C\C(C)[C@H](OC(N)=O)[C@@H](C)[C@H](O)[C@@H](C)C/C(C)=C\[C@H](C)[C@@H](O)C(C)/C=C\c1ccc2oc(=O)ccc2c1 (single isomer, unassigned; (+)) [(+)-9]	3300	micromolar activity	1600	1800
CC/C=C\C(C)[C@H](OC(N)=O)[C@@H](C)[C@H](O)[C@@H](C)C/C(C)=C\[C@H](C)[C@@H](O)C(C)/C=C\c1ccc2c(c1)N(C)C(=O)CO2 (single isomer, unassigned; (+)) [(+)-11]	3200	micromolar activity	1600	2400
CC/C=C\C(C)[C@H](OC(N)=O)[C@@H](C)[C@H](O)[C@@H](C)C/C(C)=C\[C@H](C)[C@@H](O)C(C)/C=C\c1ccc2c(c1)N(COC)C(=O)CO2 (single isomer, unassigned; (+)) [(+)-12]	4000	micromolar activity	3000	2900
C=C/C=C\[C@H](C)[C@H](OC(N)=O)[C@@H](C)[C@H](O)[C@@H](C)C/C(C)=C\[C@H](C)[C@@H](O)[C@@H](C)/C=C\[C@@H](O)CC1OC(=O)[C@H](C)[C@@H](O)[C@H]1C (single isomer, unassigned; (+)) [(+)-Discodermolide 1, (+)-discodermolide, reference compound]	260		26	25
CC/C=C\C(C)[C@H](OC(N)=O)[C@@H](C)[C@H](O)[C@@H](C)C/C(C)=C\[C@H](C)[C@@H](O)C(C)/C=C\c1ccc2c(c1)NC(=O)CO2 (single isomer, unassigned; (-)) [(−)-10]	840	micromolar activity	430	790
